Measured values reported in publication PMC7450057, “Enhancing intracellular accumulation and target engagement of PROTACs with reversible covalent chemistry” (Nature Communications, 2020).
“And” between values parts separate entries of the source, which are not always exact repeats. Identical values can stand only once.

How the values were obtained:
MOLM-14 cells = experiment: Quantification of intracellular drug concentration by LC-MS; assay type: in vitro ADME; conditions: for Intracellular concentration: Concentration of compound, AVE / intracellular amount, AVE / intracellular amount / Intracellular concentration: Concentration of compound: 200 nM; for Intracellular concentration: Concentration of compound, AVE / intracellular amount, AVE: average of 3 replicates; for intracellular amount: initial amount 0.4000 nmol; for Intracellular concentration: Concentration of compound: sample volume 400 µL
Description: MOLM-14 cells were seeded at a density of 0.5 × 10^6 per mL in 2 mL medium. […] The samples were immediately centrifuged at 12,000 × g for 15 min at 4 °C, then removing the supernatant. In all, 400 μL of NP-40 lysis buffer was added to the cell pellet and mixed thoroughly. The mixtures were rocked for 1 h at 4 °C and centrifuged at 12,000 × g for 15 min at 4 °C. Then the supernatant was transferred to new EP tubes. In total, 20 µL supernatant was extracted with 180 µL of acetonitrile (containing internal standard: 250 nM of RNC-Ctrl) and centrifuged at the same conditions described above. Take 75 μL of supernatant for liquid chromatography-mass spectrometry analysis.
The mass spectrometer was operated in positive SIM ion mode (fragmentor 120 V; cycle time 0.6 s/cycle; Agilent Technologies 6130 Quadrupole LC/MS).

Mino cells = experiment: AlamarBlue cell viability assay, Mino; assay type: cell-based; conditions: for Mino Cell Viability%: Figure 2f, 5 replicates
Description: The IC50 was calculated using GraphPad Prism software with a four-parameter dose-response curve fit.

With CN(CCCNC(=O)CNc1cccc2c1C(=O)N(C1CCC(=O)NC1=O)C2=O)CCCC(=O)N1CCCC(n2nc(-c3ccc(Oc4ccccc4)cc3)c3c(N)ncnc32)C1 (centres unmarked) [RNC-1] the “Intracellular concentration: Concentration of compound, AVE” value (from here on “Intracellular concentration … AVE”) (MOLM-14 cells; 5 min) was 0.0812 µM, the “intracellular amount, AVE” value (MOLM-14 cells; 5 min) was 0.0325 nmol and the intracellular amount (MOLM-14 cells; 5 min, single replicates) was 0.0283 nmol and 0.0378 nmol and 0.0313 nmol. For the same compound, the “Intracellular concentration: Concentration of compound” value (MOLM-14 cells; 5 min, single replicates) was 0.0707 µM and 0.0946 µM and 0.0782 µM, the “Intracellular concentration … AVE” value (MOLM-14 cells; 15 min) was 0.0738 µM and the “intracellular amount, AVE” value (MOLM-14 cells; 15 min) was 0.0295 nmol. The intracellular amount (MOLM-14 cells; 15 min, single replicates) was 0.0286 nmol and 0.0292 nmol and 0.0308 nmol, the “Intracellular concentration: Concentration of compound” value (MOLM-14 cells; 15 min, single replicates) was 0.0714 µM and 0.0730 µM and 0.0769 µM and the “Intracellular concentration … AVE” value (MOLM-14 cells; 30 min) was 0.0681 µM. The “intracellular amount, AVE” value (MOLM-14 cells; 30 min) was 0.0272 nmol, the intracellular amount (MOLM-14 cells; 30 min, single replicates) was 0.0255 nmol and 0.0275 nmol and 0.0287 nmol and the “Intracellular concentration: Concentration of compound” value (MOLM-14 cells; 30 min, single replicates) was 0.0636 µM and 0.0688 µM and 0.0717 µM. The “Intracellular concentration … AVE” value (MOLM-14 cells; 60 min) was 0.0458 µM, the “intracellular amount, AVE” value (MOLM-14 cells; 60 min) was 0.0183 nmol and the intracellular amount (MOLM-14 cells; 60 min, single replicates) was 0.0183 nmol and 0.0188 nmol and 0.0180 nmol. The “Intracellular concentration: Concentration of compound” value (MOLM-14 cells; 60 min, single replicates) was 0.0457 µM and 0.0469 µM and 0.0450 µM, the “Intracellular concentration … AVE” value (MOLM-14 cells; 90 min) was 0.0470 µM and the “intracellular amount, AVE” value (MOLM-14 cells; 90 min) was 0.0188 nmol. For the same compound, the intracellular amount (MOLM-14 cells; 90 min, single replicates) was 0.0195 nmol and 0.0181 nmol and 0.0187 nmol, the “Intracellular concentration: Concentration of compound” value (MOLM-14 cells; 90 min, single replicates) was 0.0488 µM and 0.0453 µM and 0.0468 µM and the “Intracellular concentration … AVE” value (MOLM-14 cells; 120 min) was 0.0445 µM. The “intracellular amount, AVE” value (MOLM-14 cells; 120 min) was 0.0178 nmol, the intracellular amount (MOLM-14 cells; 120 min, single replicates) was 0.0166 nmol and 0.0169 nmol and 0.0199 nmol and the “Intracellular concentration: Concentration of compound” value (MOLM-14 cells; 120 min, single replicates) was 0.0414 µM and 0.0423 µM and 0.0498 µM. For the same compound, the “Intracellular concentration … AVE” value (MOLM-14 cells; 240 min) was 0.0399 µM, the “intracellular amount, AVE” value (MOLM-14 cells; 240 min) was 0.0160 nmol and the intracellular amount (MOLM-14 cells; 240 min, single replicates) was 0.0161 nmol and 0.0163 nmol and 0.0155 nmol. The “Intracellular concentration: Concentration of compound” value (MOLM-14 cells; 240 min, single replicates) was 0.0402 µM and 0.0408 µM and 0.0387 µM, the Cellular concentration (MOLM-14 cells; 5 min, Mean) was 0.0325 nmol/million cells and the Cellular concentration (MOLM-14 cells; 5 min, single replicates, MOLM-14, 200 nM) was 0.0313 nmol/million cells and 0.0283 nmol/million cells and 0.0378 nmol/million cells. The Cellular concentration (MOLM-14 cells; 15 min, Mean) was 0.0295 nmol/million cells, the Cellular concentration (MOLM-14 cells; 15 min, single replicates, MOLM-14, 200 nM) was 0.0308 nmol/million cells and 0.0286 nmol/million cells and 0.0292 nmol/million cells and the Cellular concentration (MOLM-14 cells; 30 min, Mean) was 0.0272 nmol/million cells. The Cellular concentration (MOLM-14 cells; 30 min, single replicates, MOLM-14, 200 nM) was 0.0287 nmol/million cells and 0.0255 nmol/million cells and 0.0275 nmol/million cells, the Cellular concentration (MOLM-14 cells; 60 min, Mean) was 0.0183 nmol/million cells and the Cellular concentration (MOLM-14 cells; 60 min, single replicates, MOLM-14, 200 nM) was 0.0180 nmol/million cells and 0.018 nmol/million cells and 0.0183 nmol/million cells and 0.0188 nmol/million cells. The Cellular concentration (MOLM-14 cells; 90 min, Mean) was 0.0188 nmol/million cells, the Cellular concentration (MOLM-14 cells; 90 min, single replicates, MOLM-14, 200 nM) was 0.0187 nmol/million cells and 0.0195 nmol/million cells and 0.0181 nmol/million cells and the Cellular concentration (MOLM-14 cells; 120 min, Mean) was 0.0178 nmol/million cells. The Cellular concentration (MOLM-14 cells; 120 min, single replicates, MOLM-14, 200 nM) was 0.0199 nmol/million cells and 0.0166 nmol/million cells and 0.0169 nmol/million cells, the Cellular concentration (MOLM-14 cells; 240 min, Mean) was 0.0160 nmol/million cells and 0.016 nmol/million cells and the Cellular concentration (MOLM-14 cells; 240 min, single replicates, MOLM-14, 200 nM) was 0.0155 nmol/million cells and 0.0161 nmol/million cells and 0.0163 nmol/million cells. The “Mino Cell Viability%” value (Mino cells; 1.00E-06 M) was 58.0853% and 51.9026% and 45.6712% and 52.4594%, the “Mino Cell Viability%” value (Mino cells; 1.60E-09 M) was 101.95% and 90.6294% and 68.165% and 98.7947% and 93.12% and the “Mino Cell Viability%” value (Mino cells; 2.00E-07 M) was 37.8282% and 87.963% and 68.8682% and 84.564% and 91.6647%. The “Mino Cell Viability%” value (Mino cells; 3.20E-10 M) was 102.731% and 88.3341% and 102.301% and 86.4979% and 82.7278%, the “Mino Cell Viability%” value (Mino cells; 4.00E-08 M) was 90.0141% and 69.2003% and 110.3% and 97.7887% and 98.2185% and the “Mino Cell Viability%” value (Mino cells; 5.00E-06 M) was 16.067% and 36.4022% and 19.085% and 31.8214% and 33.179%. The “Mino Cell Viability%” value (Mino cells; 8.00E-09 M) was 96.0404% and 89.3401% and 104.098% and 90.522% and 101.012% and the IC50 (Mino cells; Homo sapiens, Mino cells, 72 h, Alamar Blue) was 1 µM.
